Assays:
estrogen receptor (ER) = estrogen receptor (ER) (Homo sapiens (Human), UniProt P03372); assay: Inhibition of the binding of estrogen (E) to estrogen receptor (ER), MCF-7/ERE-luciferase reporter cells; assay type: cell-based; settings: MCF-7/ERE-luciferase cells, 0.1 nM estradiol, 24 hours; read-out: IC50 value of inhibition effect on the binding of E to ER
Experimental: The inhibition effect of the compounds on the binding of E to ER in vitro was tested by the following method.
The object of this experiment was to determine the inhibition effect of the compounds on the binding of E to ER, and the in vitro activity of the compounds was evaluated according to the IC50 value.
MCF-7/ERE-luciferase cells were inoculated into the MEM medium (hyclone, SH30024.01B) containing 10% charcoal stripped FBS (Moregate, FBSF), 1% sodium pyruvate (Sigma, Cat. No. S8636), 1% nonessential amino acids (Sigma, Cat. No. M7145) and 500 μg/ml G418 in a 96-well plate with a density of 30,000 cells/well, and the cells were incubated under the conditions of 37° C. and 5% CO2. […] After incubation for 24 hours, the medium was removed, then 0.1 nM estradiol (Sigma, Cat. No. E2758) and 10 μl of the drug diluted with the medium were added to each well, and the control group was added with DMSO. The plate was gently shaken and incubated in a incubator at 37° C., 5% CO2. After 24 hours, the cell culture medium was discarded.
The inhibition effect of the compounds of the present invention on the binding of E to ER was tested by the experiment described above.

MCF7 cells = assay: Inhibition of the proliferation of MCF7 cells (Cell Titer-Glo); assay type: cell-based; settings: Homo sapiens, MCF-7 cells, 72 hours, read-out: IC50 value of inhibition effect on the proliferation of MCF7 cells
Experimental: The object of this experiment was to determine the inhibition effect of the compounds on the proliferation activity of MCF7 cells, and the in vitro activity of the compounds was evaluated according to the IC50 value.
After incubation for 24 hours, the medium was removed, then 90 μl of the medium containing 2% FBS and 10 μl of the drug were added to each well, 10 μl of DMSO were added to the control group, and the blank group contained only 100 μl medium containing 2% FBS. The plate was gently shaken and incubated in a incubator at 37° C., 5% CO2. After 72 hours, 50 μl of mixed Cell Titer-Glo (Promega, Cat. No. G7571) were added to each well. The plate was shaken until the ingredients were well mixed, and placed at room temperature for 10 minutes, then the chemiluminescence signal value was determined.
The values of the chemiluminescence signals vs the logarithmic concentrations of the compounds were plotted using Graghpad Prism to obtain IC50 values.

Sequence of estrogen receptor (ER) (P03372 whole entry): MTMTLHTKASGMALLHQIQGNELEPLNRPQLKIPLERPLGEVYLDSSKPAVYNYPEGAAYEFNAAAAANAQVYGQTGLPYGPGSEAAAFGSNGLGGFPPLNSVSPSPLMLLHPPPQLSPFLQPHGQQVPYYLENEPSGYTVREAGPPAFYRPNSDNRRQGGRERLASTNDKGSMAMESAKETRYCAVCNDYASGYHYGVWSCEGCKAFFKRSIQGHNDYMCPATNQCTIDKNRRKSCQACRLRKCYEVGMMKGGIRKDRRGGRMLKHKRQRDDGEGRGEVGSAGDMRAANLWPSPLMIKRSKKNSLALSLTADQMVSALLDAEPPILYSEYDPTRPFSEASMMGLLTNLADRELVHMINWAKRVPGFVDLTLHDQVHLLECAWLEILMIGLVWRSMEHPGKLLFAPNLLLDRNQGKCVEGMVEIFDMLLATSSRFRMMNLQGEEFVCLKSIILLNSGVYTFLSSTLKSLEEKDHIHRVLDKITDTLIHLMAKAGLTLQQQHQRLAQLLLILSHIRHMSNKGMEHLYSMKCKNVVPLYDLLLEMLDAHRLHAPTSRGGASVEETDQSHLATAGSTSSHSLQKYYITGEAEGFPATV

Row | Structure (SMILES) | IC50 (estrogen receptor (ER)) [nM] | IC50 (MCF7 cells) [nM]
1 | CC1CN(c2ccc3c(c2)CC(C)N(CC(C)(C)F)C3c2c(F)cc(/C=C/C(=O)O)cc2F)CCO1 [Example 38, (E)-3-(3,5-difluoro-4-((1S,3R/1R,3S)-2-(2-fluoro-2-methylpropyl)-3-methyl-6-(2-methylmorpholino)-1,2,3,4-tetrahydroisoquinolin-1-yl)phenyl)acrylic acid] | 4.42 | 1.34
2 | Cc1nc2ccc(-c3ccc4c(c3)CC(C)N(CC(C)(C)F)C4c3c(F)cc(/C=C/C(=O)O)cc3F)cc2s1 [Example 66, (E)-3-(3,5-difluoro-4-((1S,3R/1R,3S)-2-(2-fluoro-2-methylpropyl)-3-methyl-6-(2-methylbenzo[d]thiazol-6-yl)-1,2,3,4-tetrahydroisoquinolin-1-yl)phenyl)acrylic acid] | 3.25 | 1.62
3 | C[C@H]1Cc2c(oc3ccccc23)[C@H](c2c(F)cc(/C=C/C(=O)O)cc2F)N1CC(C)(C)F [Example 69, (E)-3-(3,5-difluoro-4-((1S,3S)-2-(2-fluoro-2-methylpropyl)-3-methyl-1,2,3,4-tetrahydrobenzofuro[2,3-c]pyridin-1-yl)phenyl)acrylic acid] | 34 | 6.41
4 | C[C@H]1Cc2cc(-c3ccc4cnccc4c3)ccc2[C@H](c2c(F)cc(/C=C/C(=O)O)cc2F)N1CC(C)(C)F [Example 99, (E)-3-(3,5-difluoro-4-((1R,3S)-2-(2-fluoro-2-methylpropyl)-3-methyl-1,2,3,4-tetrahydro-[6,6′-biisoquinolin]-1-yl)phenyl)acrylic acid] | 77.5 | 
5 | CC1Cc2cc(N3Cc4ccncc4C3)ccc2C(c2c(F)cc(/C=C/C(=O)O)cc2F)N1CC(C)(C)F [Example 42, (E)-3-(3,5-difluoro-4-((1S,3R/1R,3S)-2-(2-fluoro-2-methylpropyl)-3-methyl-6-(1H-pyrrolo[3,4-c]pyridin-2(3H)-yl)-1,2,3,4-tetrahydroisoquinolin-1-yl)phenyl)acrylic acid] | 8.1 | 5
6 | CCn1cc(-c2ccc3oc4c(c3c2)C[C@H](C)N(CC(C)(C)F)[C@H]4c2c(F)cc(/C=C/C(=O)O)cc2F)cn1 [Example 96, (E)-3-(4-((1S,3S)-6-(1-ethyl-1H-pyrazol-4-yl)-2-(2-fluoro-2-methylpropyl)-3-methyl-1,2,3,4-tetrahydrobenzofuro[2,3-c]pyridin-1-yl)-3,5-difluorophenyl)acrylic acid] | 31.2 | 
7 | CC1Cc2c(ccc3[nH]ncc23)C(c2ccc(/C=C/C(=O)O)cc2)N1CC(C)(C)F [Example 101, (E)-3-(4-((6S,8R/6R,8S)-7-(2-fluoro-2-methylpropyl)-8-methyl-6,7,8,9-tetrahydro-3H-pyrazolo[4,3-f]isoquinolin-6-yl)phenyl)acrylic acid] | 3.14 | 2.07
8 | C[C@H]1Cc2cc3c(cc2[C@H](c2c(F)cc(/C=C/C(=O)O)cc2F)N1CC(C)(C)F)OCO3 [Example 72, (E)-3-(3,5-difluoro-4-((5R,7S)-6-(2-fluoro-2-methylpropyl)-7-methyl-5,6,7,8-tetrahydro-[1,3]dioxolo[4,5-g]isoquinolin-5-yl)phenyl)acrylic acid] | 40.9 | 
9 | CC1Cc2cc(C3CC3)ccc2C(c2c(F)cc(/C=C/C(=O)O)cc2F)N1CC(C)(C)F [Example 34, (E)-3-(4-((1S,3R/1R,3S)-6-cyclopropyl-2-(2-fluoro-2-methylpropyl)-3-methyl-1,2,3,4-tetrahydroisoquinolin-1-yl)-3,5-difluorophenyl)acrylic acid] | 18.4 | 
10 | CC1Cc2cc3c(cc2C(c2ccc(/C=C/C(=O)O)cc2)N1CC(C)(C)F)OCO3 (centres unmarked) [Example 83, (E)-3-(4-(6-(2-fluoro-2-methylpropyl)-7-methyl-5,6,7,8-tetrahydro-[1,3]dioxolo[4,5-g]isoquinolin-5-yl)phenyl)acrylic acid] | 20.5 | 17.5
11 | CC1Cc2cc(OCC#N)ccc2C(c2c(F)cc(/C=C/C(=O)O)cc2F)N1CC(C)(C)F [Example 33, (E)-3-(4-((1S,3R/1R,3S)-6-(cyanomethoxy)-2-(2-fluoro-2-methylpropyl)-3-methyl-1,2,3,4-tetrahydroisoquinolin-1-yl)-3,5-difluorophenyl)acrylic acid] | 37.7 | 7.78
12 | CC1Cc2cc(C#N)ccc2C(c2c(F)cc(/C=C/C(=O)O)cc2F)N1CC(C)(C)F [Example 93, (E)-3-(4-((1S,3R/1R,3S)-6-cyano-2-(2-fluoro-2-methylpropyl)-3-methyl-1,2,3,4-tetrahydroisoquinolin-1-yl)-3,5-difluorophenyl)acrylic acid] | 12.9 | 
13 | CC1Cc2cc(NC(=O)OC(C)(C)C)ccc2C(c2c(F)cc(/C=C/C(=O)O)cc2F)N1CC(C)(C)F [Example 31, (E)-3-(4-((1S,3R/1R,3S)-6-((tert-butoxycarbonyl)amino)-2-(2-fluoro-2-methylpropyl)-3-methyl-1,2,3,4-tetrahydroisoquinolin-1-yl)-3,5-difluorophenyl)acrylic acid] | 84.1 | 
14 | C[C@H]1Cc2c(ccc3[nH]ncc23)[C@H](c2c(F)cc(/C=C/C(=O)O)cc2F)N1CC(C)(C)F [Example 95, (E)-3-(3,5-difluoro-4-((6R,8S)-7-(2-fluoro-2-methylpropyl)-8-methyl-6,7,8,9-tetrahydro-3H-pyrazolo[4,3-f]isoquinolin-6-yl)phenyl)acrylic acid] | 29.8 | 

Further compounds by falling IC50 (estrogen receptor (ER)), results first:

Row | IC50 (estrogen receptor (ER)) [nM] | IC50 (MCF7 cells) [nM] | Structure (SMILES)
15 | 26 |  | CC(C)Cn1cc(-c2ccc3c(c2)CC(C)N(CC(C)(C)F)C3c2c(F)cc(/C=C/C(=O)O)cc2F)cn1 [Example 52, (E)-3-(3,5-difluoro-4-((1S,3R/1R,3S)-2-(2-fluoro-2-methylpropyl)-6-(1-isobutyl-1H-pyrazol-4-yl)-3-methyl-1,2,3,4-tetrahydroisoquinolin-1-yl)phenyl)acrylic acid]
16 | 24.9 |  | CC1Cc2cc(OC3CCOCC3)ccc2C(c2c(F)cc(/C=C/C(=O)O)cc2F)N1CC(C)(C)F [Example 36, (E)-3-(3,5-difluoro-4-((1S,3R/1R,3S)-2-(2-fluoro-2-methylpropyl)-3-methyl-6-((tetrahydro-2H-pyran-4-yl)oxy)-1,2,3,4-tetrahydroisoquinolin-1-yl)phenyl)acrylic acid]
17 | 21.9 | 7.3 | CC1Cc2c(oc3cc(Cl)ccc23)C(c2c(F)cc(/C=C/C(=O)O)cc2F)N1CC(C)(C)F [Example 85, (E)-3-(4-((1R,3R/1S,3S)-7-chloro-2-(2-fluoro-2-methylpropyl)-3-methyl-1,2,3,4-tetrahydrobenzofuro[2,3-c]pyridin-1-yl)-3,5-difluorophenyl)acrylic acid]
18 | 14.2 | 2.34 | CC1Cc2cc(N3CCN(C)C(=O)C3)ccc2C(c2c(F)cc(/C=C/C(=O)O)cc2F)N1CC(C)(C)F [Example 39, (E)-3-(3,5-difluoro-4-((1S,3R/1R,3S)-2-(2-fluoro-2-methylpropyl)-3-methyl-6-(4-methyl-3-oxopiperazin-1-yl)-1,2,3,4-tetrahydroisoquinolin-1-yl)phenyl)acrylic acid]
19 | 13.6 | 16.1 | CC1Cc2cc(-c3cnc4ccccc4c3)ccc2C(c2c(F)cc(/C=C/C(=O)O)cc2F)N1CC(C)(C)F [Example 62, (E)-3-(3,5-difluoro-4-((1S,3R/1R,3S)-2-(2-fluoro-2-methylpropyl)-3-methyl-6-(quinolin-3-yl)-1,2,3,4-tetrahydroisoquinolin-1-yl)phenyl)acrylic acid]
20 | 4.98 | 2.66 | Cc1ccc(-c2ccc3c(c2)CC(C)N(CC(C)(C)F)C3c2c(F)cc(/C=C/C(=O)O)cc2F)s1 [Example 43, (E)-3-(3,5-difluoro-4-((1S,3R/1R,3S)-2-(2-fluoro-2-methylpropyl)-3-methyl-6-(5-methylthiophen-2-yl)-1,2,3,4-tetrahydroisoquinolin-1-yl)phenyl)acrylic acid]
21 | 1.32 | 2.95 | CC1Cc2c(ccc3[nH]ncc23)C(c2c(F)cc(/C=C/C(=O)O)cc2F)N1C1CCCC1 [Example 103, (E)-3-(4-((6S,8R/6R,8S)-7-cyclopentyl-8-methyl-6,7,8,9-tetrahydro-3H-pyrazolo[4,3-f]isoquinolin-6-yl)-3,5-difluorophenyl)acrylic acid]
22 | 0.64 | 4.99 | CC(C)CN1C(C)Cc2c(ccc3[nH]ncc23)C1c1ccc(/C=C/C(=O)O)cc1 [Example 102, (E)-3-(4-((6R,8R/6S,8S)-7-isobutyl-8-methyl-6,7,8,9-tetrahydro-3H-pyrazolo[4,3-f]isoquinolin-6-yl)phenyl)acrylic acid]
